# US11566017B2, “Dihydroquinazolinone compound or pharmacologically acceptable salt, and cell growth inhibitor” (RIKEN, priority 2017, dated 2023)
# Key:
# [1] = tested on: human colorectal cancer cell line COLO-320DM; assay: Cell proliferation inhibitory activity test (Celltiter-Glo); assay type: cell-based; details: COLO-320DM cells, 96 hours
# [2] = molecular target: T1, tankyrase 2 (TNKS2) (Homo sapiens, UniProt Q9H2K2); assay: Tankyrase inhibitory activity test (ELISA, auto-poly(ADP-ribosyl)ation), tankyrase 2; assay type: biochemical; details: Flag tagged tankyrase 2 (613-1,116aa, ANK5+SAM+PARP); read-out: TNKS2 (inhibitory activity against tankyrase 2, IC50)
# T1 construct: tankyrase 2 (613-1,116aa, ANK5+SAM+PARP); made in house; host or cells: cell-free protein expression system
# In short: (§1)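 Cell-free-expressed Flag-tagged TNKS1 (1,024-1,327aa, SAM+PARP) or TNKS2 (613-1,116aa, ANK5+SAM+PARP) was captured on anti-FLAG plates and pre-incubated 10 min at RT with compound (pH 8.0, MgCl2, DTT). Auto-PARylation was started with NAD solution (225 μM NAD, 25 μM biotin-NAD), 45 min at 30 °C. Detection by HRP-streptavidin chemiluminescence; IC50 from residual activity.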
# [3] = tested on: tubulin (microtubule polymerization); assay: Microtubule polymerization inhibition test (fluorescence kit BK011P); assay type: biochemical; details: 60 min
# Method: Using a microtubule polymerization reaction measurement kit (Cytoskeleton Inc.; BK011P), the microtubule polymerization inhibitory activity of the compound (test compound) prepared in each of Examples was evaluated on the basis of the standard protocol of the kit. Solutions with concentrations of 30 μM and 150 μM were prepared by dissolving the test compound in DMSO, and used as test compound solutions (with final concentrations of 3 μM and 15 μM, respectively). DMSO was used as a negative control solution, and vincristine (final concentration: 3 μM) was used as a positive control solution.
# 5 μL of the test compound solution or each control solution, and 50 μL of a microtubule-containing reaction mixture (1×Buffer 1; 1 mM GTP; 15% glycerol; and tubulin with a concentration of 2 mg/mL) were added to a 96-well plate (Corning Costar Company; #3686) warmed to 37° C., and a change in fluorescence of the reaction solution was measured over 1 hour. A higher fluorescence intensity means a higher degree of progression of polymerization of microtubules. The composition of Buffer 1 and the fluorescence measurement conditions employed in the analysis are shown below.
# 80 mM Piperazine-N,N′-bis[2-ethanesulfonic acid] sequisodium salt; 2.0 mM Magnesium chloride; 0.5 mM Ethylene glycol-bis (β-amino-ethyl ether)N,N,N′,N′-tetra-acetic acid; 10 μM fluorescent reporter
# Measurement wavelength: 360 nm (excitation wavelength) and 450 nm (emission wavelength)
# Measurement time: 60 min (1 cycle/min)
# Equipment used: Microplatereader SpectraMax M2 (Molecular Devices Company)
# [4] = molecular target: T2, tankyrase 1 (TNKS1) (Homo sapiens, UniProt O95271); assay: Tankyrase inhibitory activity test (ELISA, auto-poly(ADP-ribosyl)ation), tankyrase 1; assay type: biochemical; details: Flag tagged tankyrase 1 (1,024-1,327aa, SAM+PARP); read-out: TNKS1 (inhibitory activity against tankyrase 1, IC50)
# T2 construct: tankyrase 1 (1,024-1,327aa, SAM+PARP); made in house; host or cells: cell-free protein expression system
# T2 sequence (O95271 1024-1327): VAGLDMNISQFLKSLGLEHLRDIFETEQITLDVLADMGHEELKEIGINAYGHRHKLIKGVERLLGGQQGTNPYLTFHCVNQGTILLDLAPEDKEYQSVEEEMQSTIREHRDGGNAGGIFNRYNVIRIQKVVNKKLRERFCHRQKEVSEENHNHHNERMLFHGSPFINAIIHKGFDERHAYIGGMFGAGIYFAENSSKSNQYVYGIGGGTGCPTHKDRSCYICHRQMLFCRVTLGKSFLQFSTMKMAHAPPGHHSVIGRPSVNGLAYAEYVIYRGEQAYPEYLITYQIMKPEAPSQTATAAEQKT
# In short: as §1
# [5] = racemates, 3 μM (FIG. 1A) and 15 μM (FIG. 1B)
Compound,GI50 [1] [nM],IC50 [2] [nM],IC50 [4] [nM],"microtubule polymerization: increase in fluorescence intensity [3, 5]","microtubule polymerization: increase in fluorescence intensity ([3]; positive control, final concentration 3 μM)"
"CCOc1ccc(-c2n[nH]nc2C2NC(=O)c3cccc(C)c3N2)cc1 (racemic) [Example 70, 2-[5-(4-Ethoxyphenyl)-2H-1,2,3-triazol-4-yl]-8-methyl-2,3-dihydro-1H-quinazolin-4-one]",< 1000,< 5,5 to 20,slower increase in fluorescence intensity as compared to the DMSO control,–
"CC[C@]1(O)C[C@H]2CN(CCc3c([nH]c4ccccc34)[C@@](C(=O)OC)(c3cc4c(cc3OC)N(C=O)[C@H]3[C@@](O)(C(=O)OC)[C@H](OC(C)=O)[C@]5(CC)C=CCN6CC[C@]43[C@@H]65)C2)C1 [vincristine, reference compound]",–,–,–,–,slower increase in fluorescence intensity as compared to the DMSO control
"COc1ccc(-c2n[nH]nc2C2NC(=O)c3cccc4c3N2CC4)cc1 (racemic) [Example 69, 11-[5-(4-Methoxyphenyl)-2H-1,2,3-triazol-4-yl]-1,10-diazatricyclo[6.3.1.0^4,12]dodeca-4(12),5,7-trien-9-one]",1000 to 10000,5 to 20,5 to 20,slower increase in fluorescence intensity as compared to the DMSO control,–
"CN1c2ccccc2C(=O)NC1c1c[nH]nc1-c1ccc(OCc2ccccc2)cc1 (stereo not shown) [Example 11, 1-Methyl-2-[3-(4-phenylmethoxyphenyl)-1H-pyrazol-4-yl]-2,3-dihydroquinazolin-4-one]",≥ 10000,< 5,5 to 20,–,–
"Cc1cccc2c1NC(c1n[nH]nc1-c1ccc(Br)cc1)NC2=O (stereo not shown) [Example 66, 2-[4-(4-Bromophenyl)-2H-1,2,3-triazol-5-yl]-8-methyl-2,3-dihydro-1H-quinazolin-4-one]",≥ 10000,< 5,5 to 20,–,–
"CN1c2ccccc2C(=O)NC1c1n[nH]nc1-c1ccc(OCC(F)(F)F)cc1 (stereo not shown) [Example 64, 1-Methyl-2-[4-[4-(2,2,2-trifluoroethoxy)phenyl]-2H-1,2,3-triazol-5-yl]-2,3-dihydroquinazolin-4-one]",≥ 10000,5 to 20,20 to 50,–,–
"COc1ccc(-c2[nH]ncc2C2NC(=O)c3cccc(C)c3N2)cc1 (stereo not shown) [Example 50, 2-[5-(4-Methoxyphenyl)-1H-pyrazol-4-yl]-8-methyl-2,3-dihydro-1H-quinazolin-4-one]",≥ 10000,5 to 20,5 to 20,–,–
"CN1c2ccccc2C(=O)NC1c1c[nH]nc1-c1ccc(I)cc1 (stereo not shown) [Example 19, 2-[3-(4-Iodophenyl)-1H-pyrazol-4-yl]-1-methyl-2,3-dihydroquinazolin-4-one]",≥ 10000,< 5,5 to 20,–,–
"CCOc1ccc(-c2n[nH]cc2C2NC(=O)c3ccccc3N2C)cc1 (stereo not shown) [Example 46, 2-[5-(4-Ethoxyphenyl)-1H-pyrazol-4-yl]-1-methyl-2,3-dihydroquinazolin-4-one]",1000 to 10000,< 5,< 5,–,–
"CN1c2ccccc2C(=O)NC1c1c[nH]nc1-c1ccc(OCC(F)(F)F)cc1 (stereo not shown) [Example 27, 1-Methyl-2-[3-(4-(2,2,2-trifluoromethoxy)phenyl]-1H-pyrazol-4-yl]-2,3-dihydroquinazolin-4-one]",≥ 10000,5 to 20,< 5,–,–
"CN1c2ccccc2C(=O)NC1c1c[nH]nc1-c1cccc(Br)c1 (stereo not shown) [Example 20, 2-[3-(3-Bromophenyl)-1H-pyrazol-4-yl]-1-methyl-2,3-dihydroquinazolin-4-one]",≥ 10000,5 to 20,20 to 50,–,–
"CN1CCN(c2ccc(-c3cccc(-c4n[nH]nc4C4NC(=O)c5ccccc5N4C)c3)cc2)CC1 (stereo not shown) [Example 61, 1-Methyl-2-[5-[3-[4-(4-methylpiperazin-1-yl)phenyl]phenyl]-2H-1,2,3-triazol-4-yl]-2,3-dihydroquinazolin-4-one]",≥ 10000,5 to 20,5 to 20,–,–
"COc1ccc(-c2n[nH]cc2C2NC(=O)c3ccccc3N2)cc1 (stereo not shown) [Example 82, 2-[5-(4-Methoxyphenyl)-1H-pyrazol-4-yl]-2,3-dihydro-1H-quinazolin-4-one]",≥ 10000,5 to 20,5 to 20,–,–
"CN1c2ccccc2C(=O)NC1c1c[nH]nc1-c1cccc(Cl)c1 (stereo not shown) [Example 42, 2-[3-(3-Chlorophenyl)-1H-pyrazol-4-yl]-1-methyl-2,3-dihydroquinazolin-4-one]",1000 to 10000,5 to 20,20 to 50,–,–

# Now from value to molecule, other results behind:
GI50 [1] [nM],IC50 [2] [nM],IC50 [4] [nM],Compound,"microtubule polymerization: increase in fluorescence intensity [3, 5]","microtubule polymerization: increase in fluorescence intensity ([3]; positive control, final concentration 3 μM)"
< 1000,< 5,5 to 20,"COc1ccc(-c2n[nH]nc2C2NC(=O)c3cccc(C)c3N2)cc1 (racemic) [Example 65, 2-[5-(4-Methoxyphenyl)-2H-1,2,3-triazol-4-yl]-8-methyl-2,3-dihydro-1H-quinazolin-4-one]",slower increase in fluorescence intensity as compared to the DMSO control,–
1000 to 10000,< 5,< 5,"CN1c2ccccc2C(=O)NC1c1c[nH]nc1-c1ccc(OCc2ccccc2)c(F)c1 (stereo not shown) [Example 45, 2-[3-(3-Fluoro-4-phenylmethoxyphenyl)-1H-pyrazol-4-yl]-1-methyl-2,3-dihydroquinazolin-4-one]",–,–
1000 to 10000,5 to 20,20 to 50,"CN1CCN(c2ccc(-c3ccc(-c4n[nH]cc4C4NC(=O)c5ccccc5N4C)cc3)cc2)CC1 (stereo not shown) [Example 6, 1-Methyl-2-[5-[4-[4-(4-methylpiperazin-1-yl)phenyl]phenyl]-1H-pirazol-4-yl]-2,3-dihydroquinazolin-4-one]",–,–
1000 to 10000,< 5,5 to 20,"CCOc1ccc(-c2n[nH]cc2C2NC(=O)c3cccc(C)c3N2)cc1 (stereo not shown) [Example 55, 2-[5-(4-Ethoxyphenyl)-1H-pyrazol-4-yl]-8-methyl-2,3-dihydro-1H-quinazolin-4-one]",–,–
1000 to 10000,5 to 20,20 to 50,"CN1c2ccccc2C(=O)NC1c1c[nH]nc1-c1ccc(OC(F)(F)F)cc1 (stereo not shown) [Example 48, 1-Methyl-2-[3-(4-(trifluoromethoxy)phenyl)-1H-pyrazol-4-yl]-2,3-dihydroquinazolin-4-one]",–,–
≥ 10000,< 5,20 to 50,"CN1c2ccccc2C(=O)NC1c1c[nH]nc1-c1ccc(-c2ccccc2)cc1 (stereo not shown) [Example 17, 1-Methyl-2-[3-(4-phenylphenyl)-1H-pyrazol-4-yl]-2,3-dihydroquinazolin-4-one]",–,–
≥ 10000,5 to 20,20 to 50,"COc1c(F)cc(-c2n[nH]cc2C2NC(=O)c3ccccc3N2C)cc1F (stereo not shown) [Example 49, 2-[5-(3,5-Difluoro-4-methoxyphenyl)-1H-pyrazol-4-yl]-1-methyl-2,3-dihydroquinazolin-4-one]",–,–
1000 to 10000,5 to 20,5 to 20,"CN1c2ccccc2C(=O)NC1c1n[nH]nc1-c1ccc(Br)cc1 (stereo not shown) [Example 60, 2-[4-(4-Bromophenyl)-2H-1,2,3-triazol-5-yl]-1-methyl-2,3-dihydroquinazolin-4-one]",–,–
1000 to 10000,5 to 20,20 to 50,"CCN1c2ccccc2C(=O)NC1c1c[nH]nc1-c1ccc(OC)cc1 (stereo not shown) [Example 12, 1-Ethyl-2-[3-(4-methoxyphenyl)-1H-pyrazol-4-yl]-2,3-dihydroquinazolin-4-one]",–,–
≥ 10000,20 to 50,20 to 50,"COc1ccc(-c2n[nH]cc2C2NC(=O)c3ccccc3N2CC2CC2)cc1 (stereo not shown) [Example 14, 1-(Cyclopropylmethyl)-2-[5-(4-methoxyphenyl)-1H-pyrazol-4-yl]-2,3-dihydroquinazolin-4-one]",–,–
